What all share (assay type): in vivo
The subject of data set [1] is HORVW (Hordeum vulgare—barley). Put plainly: B1 glasshouse post-emergence herbicidal activity, barley. As to conditions: after 14 days, 100=total damage, 0=no damage. As for the experimental part: (§1) Seeds of a variety of test species HORVW (Hordeum vulgare—barley), ABUTH (Abutilon theophrasti), AMARE (Amaranthus retroflexus) and ECHCG (Echinochloa crus-galli) were sown in standard soil in pots. After cultivation for 10 days cultivation under controlled conditions in a glasshouse (at 24/16° C., day/night; 14 hours light; 65% humidity), the plants were sprayed with an aqueous spray solution derived from the formulation of the technical active ingredient in 0.6 ml acetone and 45 ml formulation solution containing 10.6% Emulsogen EL (Registry number 61791-12-6), 42.2% N-methyl pyrrolidone, 42.2% dipropylene glycol monomethyl ether (CAS RN 34590-94-8) and 0.2% X-77 (CAS RN 11097-66-8).
(§2) The test plants were then grown in a glasshouse under controlled conditions in a glasshouse (at 24/16° C., day/night; 14 hours light; 65% humidity) and watered twice daily. After 14 days, the test was evaluated (100=total damage to plant; 0=no damage to plant).

Data set [2] relates to AMARE (Amaranthus retroflexus). The experiment in a line: B1 glasshouse post-emergence herbicidal activity, AMARE. As to conditions: after 14 days, 100=total damage, 0=no damage. As for the experimental part:
as §1, §2

For data set [3], the system named is ECHCG (Echinochloa crus-galli). The experiment in a line: B1 glasshouse post-emergence herbicidal activity, ECHCG. Particulars: after 14 days, 100=total damage, 0=no damage. Here is the method:
as §1, §2

Data set [4] has as its system ABUTH (Abutilon theophrasti). Put plainly: B1 glasshouse post-emergence herbicidal activity, ABUTH. Particulars: after 14 days, 100=total damage, 0=no damage. Here is the method:
as §1, §2

Data set [5] concerns Amaranthus viridis (AMAVI). The experiment in a line: B2 drilled field trial Brazil, post-emergence, AMAVI. Particulars: 100 g ai/ha, 100=total damage, 0=no damage. As for the experimental part: (§3) Seeds of a variety of test species were used in drilled field trials to look at the control of important weed species present in corn crops as well as the effect on soybean (a volunteer crop in corn). Trials were carried out in Brazil in the summer season.
(§4) Plot size was 10-12 m^2, and two replicates were carried out per treatment. Plants were treated post-emergence at the 4 leaf stage. Fungicides and insecticides were used as necessary for plant health. The test was evaluated at 7 and 30 days after application (Amaranthus viridis (AMAVI), Bidens pilosa (BIDPI), Euphorbia heterophylla (EPPHL)) and 9 and 37 days after application (Brachiaria plantaginea (BRAPL) and soybean (Glycine max GLXMA) with 100=total damage to plant and 0=no damage to plant.
(§5) Expected results were calculated using the Colby Formula.

Data set [6] relates to Bidens pilosa (BIDPI). Put plainly: B2 drilled field trial Brazil, post-emergence, BIDPI. As to conditions: 100 g ai/ha, 100=total damage, 0=no damage. Here is the method:
as §3, §4, §5

For data set [7], the system named is soybean (Glycine max GLXMA). Put plainly: B2 drilled field trial Brazil, post-emergence, soybean. As to conditions: 100 g ai/ha, 100=total damage, 0=no damage. Here is the method:
as §3, §4, §5

Data set [8] relates to Euphorbia heterophylla (EPPHL). The experiment in a line: B2 drilled field trial Brazil, post-emergence, EPPHL. As to conditions: 100 g ai/ha, 100=total damage, 0=no damage. As for the experimental part:
as §3, §4, §5

For data set [9], the system named is Brachiaria plantaginea (BRAPL). The experiment in a line: B2 drilled field trial Brazil, post-emergence, BRAPL. Particulars: 100 g ai/ha, 100=total damage, 0=no damage. Here is the method:
as §3, §4, §5

With `COc1ccc(-n2nc(C)cc(C(=O)C3C(=O)C4CCC(C4)C3=O)c2=O)cc1OC` (stereo not drawn) [Compound 2.1, 3-[2-(3,4-dimethoxyphenyl)-6-methyl-3-oxo-pyridazine-4-carbonyl]bicyclo[3.2.1]octane-2,4-dione], the HORVW in [1] (Rate 125 g/ha) and in data set [1] (Rate 250 g/ha) was 0 throughout. For the same molecule, the AMARE in data set [2] (Rate 125 g/ha) and in data set [2] (Rate 250 g/ha) was 100 in each case. Moreover, the ECHCG in [3] (Rate 125 g/ha) and in [3] (Rate 250 g/ha) was 100 in each case. Besides, the ABUTH in data set [4] (Rate 125 g/ha) and in [4] (Rate 250 g/ha) was 100 throughout.
As for `COc1ccc(-n2nc(C)cc(C(=O)C3C(=O)CC(C)CC3=O)c2=O)cc1OC` (stereo not drawn) [Compound 2.2], the HORVW in [1] (Rate 125 g/ha) and in data set [1] (Rate 250 g/ha) was 0 in each case. For the same molecule, the AMARE in data set [2] (Rate 125 g/ha) and in data set [2] (Rate 250 g/ha) was 100 throughout. In addition, the ECHCG in [3] (Rate 125 g/ha) and in data set [3] (Rate 250 g/ha) was 100 throughout. Also, the ABUTH in [4] (Rate 125 g/ha) and in [4] (Rate 250 g/ha) was 100 throughout.
`COc1ccc(-n2nc(C)cc(C(=O)C3C(=O)CCCC3=O)c2=O)cc1OC` [Compound 2.3, 2-[2-(3,4-Dimethoxyphenyl)-6-methyl-3-oxo-pyridazine-4-carbonyl]cyclohexane-1,3-dione]: the HORVW in data set [1] (Rate 125 g/ha) and in data set [1] (Rate 250 g/ha) was 0 throughout. Further, the “AMAVI 7DAA Observed” value in data set [5] (7 days after application) was 65. The “AMAVI 30 DAA Observed” value in data set [5] (30 days after application) was 70. For the same molecule, the “BIDPI 7DAA Observed” value in data set [6] (7 days after application) was found to be 45. Also, the “BIDPI 30 DAA Observed” value in data set [6] (30 days after application) is 43. The “GLXMA 9DAA Observed” value in data set [7] (9 days after application) came out at 55. In addition, the “GLXMA 37 DAA Observed” value in data set [7] (37 days after application) was 100. Further, the AMARE in [2] (Rate 125 g/ha) and in [2] (Rate 250 g/ha) was 100 throughout. In addition, the ECHCG in [3] (Rate 125 g/ha) and in [3] (Rate 250 g/ha) was 100 in each case. Also, the “EPPHL 7DAA Observed” value in [8] (7 days after application) was determined as 58. The “EPPHL 30 DAA Observed” value in data set [8] (30 days after application) came out at 42. Further, the ABUTH in data set [4] (Rate 125 g/ha) and in data set [4] (Rate 250 g/ha) was 100 in each case. Moreover, the “BRAPL 9DAA Observed” value in data set [9] (9 days after application) came out at 78. The “BRAPL 37 DAA Observed” value in data set [9] (37 days after application) turned out to be 37.
Consider `COc1ccc(-n2nc(C)cc(C(=O)C3C(=O)CC(C)(C)CC3=O)c2=O)cc1OC` [Compound 2.4], for which the HORVW stood at 0 in data set [1] (Rate 125 g/ha) and 10 in data set [1] (Rate 250 g/ha). Further, the AMARE in data set [2] (Rate 125 g/ha) and in data set [2] (Rate 250 g/ha) was 100 throughout. For the same molecule, the ECHCG in data set [3] (Rate 125 g/ha) and in [3] (Rate 250 g/ha) was 100 in each case. In addition, the ABUTH in data set [4] (Rate 125 g/ha) and in [4] (Rate 250 g/ha) was 100 throughout.
Consider `COc1ccc(-n2nc(C)cc(C(=O)C3C(=O)C(C)(C)C(=O)C(C)(C)C3=O)c2=O)cc1OC` [Compound 2.5], for which the HORVW in data set [1] (Rate 125 g/ha) and in data set [1] (Rate 250 g/ha) was 0 throughout. Besides, the AMARE in [2] (Rate 125 g/ha) and in data set [2] (Rate 250 g/ha) was 100 in each case. Also, the ECHCG in data set [3] (Rate 125 g/ha) and in data set [3] (Rate 250 g/ha) was 90 throughout. Also, the ABUTH in data set [4] (Rate 125 g/ha) and in [4] (Rate 250 g/ha) was 100 each time.
Regarding `COc1ccc(-n2nc(C3CC3)cc(C(=O)C3C(=O)C4CCC(C4)C3=O)c2=O)cc1OC` (stereo not drawn) [Compound 2.9], the HORVW worked out at 0 in [1] (Rate 125 g/ha) and 10 in data set [1] (Rate 250 g/ha). The AMARE in data set [2] (Rate 125 g/ha) is given as 90; in data set [2] (Rate 250 g/ha), 100. Besides, the ECHCG in data set [3] (Rate 125 g/ha) and in data set [3] (Rate 250 g/ha) was 100 in each case. In addition, the ABUTH in data set [4] (Rate 125 g/ha) and in data set [4] (Rate 250 g/ha) was 100 in each case.
For `COc1ccc(-n2nc(C3CC3)cc(C(=O)C3C(=O)C(C)(C)C(=O)C(C)(C)C3=O)c2=O)cc1OC` [Compound 2.11, 6-[6-cyclopropyl-2-(3,4-dimethoxyphenyl)-3-oxo-pyridazine-4-carbonyl]-2,2,4,4-tetramethyl-cyclohexane-1,3,5-trione], the HORVW in data set [1] (Rate 125 g/ha) and in [1] (Rate 250 g/ha) was 0 throughout. Further, the AMARE in data set [2] (Rate 125 g/ha) and in [2] (Rate 250 g/ha) was 100 throughout. Moreover, the ECHCG in [3] (Rate 125 g/ha) and in [3] (Rate 250 g/ha) was 100 each time. Moreover, the ABUTH in data set [4] (Rate 125 g/ha) and in data set [4] (Rate 250 g/ha) was 100 throughout.

Values taken from patent US20190239509A1, “METHOD OF CONTROLLING PLANTS” (SYNGENTA PARTICIPATIONS AG, priority 2016, published 2019).
